SMILES strings stand for the structures.

Holding throughout (assay type): cell-based, human
The subject of assay [1] is T-cell. As to the kind of experiment: IL-2 secretion from T-cells co-stimulated with anti-CD3 and anti-CD28 antibody (Biological Example 2). The conditions noted are these: Homo sapiens, T-cell, fold change over baseline, primary human total T-cells, read-out: IL-2 secretion Anti-CD3/Anti-CD28 stimulation; for fold induction at 0.3 µM: 0.3 μM Cbl-b inhibitor; for fold induction at 1 µM: 1 μM Cbl-b inhibitor; for fold induction at 4 µM: 4 μM Cbl-b inhibitor. Put shortly: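 T-cells were stimulated with anti-CD3 antibody alone or with anti-CD28 antibody, in the presence or absence of Cbl-b inhibitor. IL-2 secretion or CD25 surface staining was measured, and values expressed as fold over the uninhibited baseline […].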

For assay [2], the system named is T-cell. The experiment in a line: IL-2 secretion from T-cells stimulated with anti-CD3 antibody alone (Biological Example 2). The following applies: T-cell, fold change over baseline, primary human total T-cells, read-out: IL-2 secretion Anti-CD3 stimulation; for fold induction at 1 µM: 1 μM Cbl-b inhibitor; for fold induction at 8 µM: 8 μM Cbl-b inhibitor.
Assay [3] has as its system T-cell. The experiment in a line: CD25 cell surface staining on T-cells stimulated with anti-CD3 antibody alone (Biological Example 2). The conditions noted are these: T-cell, fold change over baseline, primary human total T-cells, read-out: CD25 staining Anti-CD3 stimulation; for fold induction at 1 µM: 1 μM Cbl-b inhibitor; for fold induction at 8 µM: 8 μM Cbl-b inhibitor.

Take `Cc1ncc(C(=O)Nc2cccc([C@H](C)Sc3nncn3C)c2)nc1C1CC1` [Compound 70, (S)-6-cyclopropyl-5-methyl-N-(3-(1-((4-methyl-4H-1,2,4-triazol-3-yl)thio)ethyl)phenyl)pyrazine-2-carboxamide]: in assay [1], the fold induction at 0.3 µM was less than 1, the fold induction at 1 µM was in the range of 1.01 to 2.5 and the fold induction at 4 µM was 2.51 to 5. In addition, in assay [2], the fold induction at 1 µM is less than 0.05 and the fold induction at 8 µM lay in the range of 0.051 to 0.1. In assay [3], the fold induction at 1 µM was in the range of 0.801 to 1 and the fold induction at 8 µM is 0.801 to 1.

With `COc1cc(C(=O)Nc2cccc([C@H](C)Sc3nncn3C)c2)nc(C(F)(F)F)c1` [Compound 71, (S)-4-methoxy-N-(3-(1-((4-methyl-4H-1,2,4-triazol-3-yl)thio)ethyl)phenyl)-6-(trifluoromethyl)picolinamide], in assay [1], the fold induction at 0.3 µM lay in the range of 2.51 to 5, the fold induction at 1 µM lay within 2.51 to 5 and the fold induction at 4 µM is 5 to 7.5. Moreover, in assay [2], the fold induction at 1 µM was 0.051 to 0.1 and the fold induction at 8 µM was more than 0.201. Moreover, in assay [3], the fold induction at 1 µM was in the range of 0.801 to 1 and the fold induction at 8 µM fell in the range of 0.801 to 1.

Consider `C[C@H](Sc1nncn1C)c1cccc(NC(=O)c2ccnc(C(F)(F)F)n2)c1` [Compound 75, N-[3-[(1S)-1-[(4-methyl-1,2,4-triazol-3-yl)sulfanyl]ethyl]phenyl]-2-(trifluoromethyl)pyrimidine-4-carboxamide], for which, in assay [1], the fold induction at 0.3 µM is 1.01 to 2.5, the fold induction at 1 µM lay within 1.01 to 2.5 and the fold induction at 4 µM lay within 1.01 to 2.5. Besides, in assay [2], the fold induction at 1 µM was less than 0.05 and the fold induction at 8 µM is 0.051 to 0.1. In addition, in assay [3], the fold induction at 1 µM lay within 0.601 to 0.8 and the fold induction at 8 µM lay in the range of 0.801 to 1.

Regarding `C[C@H](Sc1nncn1C)c1cccc(NC(=O)c2cncc(C(F)(F)F)n2)c1` [Compound 77, N-[3-[(1S)-1-[(4-methyl-1,2,4-triazol-3-yl)sulfanyl]ethyl]phenyl]-6-(trifluoromethyl)pyrazine-2-carboxamide], in assay [1], the fold induction at 0.3 µM is less than 1, the fold induction at 1 µM was in the range of 1.01 to 2.5 and the fold induction at 4 µM lay in the range of 1.01 to 2.5. For the same compound, in assay [2], the fold induction at 1 µM was less than 0.05 and the fold induction at 8 µM is less than 0.05. Further, in assay [3], the fold induction at 1 µM is less than 0.6 and the fold induction at 8 µM lay in the range of 0.601 to 0.8.

As for `C[C@H](Sc1nncn1C)c1cccc(NC(=O)c2cc3c(Cl)cccc3[nH]2)c1` [Compound 78, 4-chloro-A-[3-[(LS)-1-[(4-methyl-1,2,4-triazol-3-yl)sulfanyl]ethyl]phenyl]-1H-indole-2-carboxamide], in assay [1], the fold induction at 0.3 µM fell in the range of 1.01 to 2.5, the fold induction at 1 µM lay within 1.01 to 2.5 and the fold induction at 4 µM fell in the range of 2.51 to 5. Further, in assay [2], the fold induction at 1 µM was less than 0.05 and the fold induction at 8 µM was more than 0.201. In addition, in assay [3], the fold induction at 1 µM is 0.601 to 0.8 and the fold induction at 8 µM was 0.801 to 1.

Consider `C[C@H](Sc1nncn1C)c1cccc(NC(=O)c2cccc(S(C)(=O)=O)n2)c1` [Compound 80, (S)-N-(3-(1-((4-methyl-4H-1,2,4-triazol-3-yl)thio)ethyl)phenyl)-6-(methylsulfonyl)picolinamide], for which, in assay [1], the fold induction at 0.3 µM is less than 1, the fold induction at 1 µM fell in the range of 1.01 to 2.5 and the fold induction at 4 µM lay in the range of 1.01 to 2.5. Moreover, in assay [2], the fold induction at 1 µM was less than 0.05 and the fold induction at 8 µM was less than 0.05. Further, in assay [3], the fold induction at 1 µM is less than 0.6 and the fold induction at 8 µM was less than 0.6.

With `C[C@H](Sc1nncn1C)c1cccc(NC(=O)c2cccc(C(C)(F)F)n2)c1` [Compound 81, (S)-6-(1,1-difluoroethyl)-N-(3-(1-((4-methyl-4H-1,2,4-triazol-3-yl)thio)ethyl)phenyl)picolinamide], in assay [1], the fold induction at 0.3 µM is less than 1, the fold induction at 1 µM was less than 1 and the fold induction at 4 µM fell in the range of 2.51 to 5. In assay [2], the fold induction at 1 µM was less than 0.05 and the fold induction at 8 µM was 0.151 to 0.2. In addition, in assay [3], the fold induction at 1 µM lay in the range of 0.801 to 1 and the fold induction at 8 µM was more than 1.

With `C[C@H](Sc1nncn1C)c1cccc(NC(=O)c2cc(C(C)(C)O)cc(C(F)(F)F)n2)c1` [Compound 85, 4-(1-hydroxy-1-methyl-ethyl)-N-[3-[(1S)-1-[(4-methyl-1,2,4-triazol-3-yl)sulfanyl]ethyl]phenyl]-6-(trifluoromethyl)pyridine-2-carboxamide], in assay [1], the fold induction at 0.3 µM is less than 1, the fold induction at 1 µM is less than 1 and the fold induction at 4 µM lay in the range of 1.01 to 2.5. In assay [2], the fold induction at 1 µM is less than 0.05 and the fold induction at 8 µM was less than 0.05. In assay [3], the fold induction at 1 µM lay in the range of 0.601 to 0.8 and the fold induction at 8 µM is more than 1.

Regarding `C[C@H](Sc1nncn1C)c1ccc(F)c(NC(=O)c2cccc(C(F)(F)F)n2)c1` [Compound 95a, (S)-N-(2-fluoro-5-(1-((4-methyl-4H-1,2,4-triazol-3-yl)thio)ethyl)phenyl)-6-(trifluoromethyl)picolinamide], in assay [1], the fold induction at 0.3 µM was in the range of 1.01 to 2.5, the fold induction at 1 µM was in the range of 1.01 to 2.5 and the fold induction at 4 µM fell in the range of 2.51 to 5. In assay [2], the fold induction at 1 µM is less than 0.05 and the fold induction at 8 µM lay in the range of 0.051 to 0.1. For the same compound, in assay [3], the fold induction at 1 µM is less than 0.6 and the fold induction at 8 µM was less than 0.6.

As for `C[C@H](Sc1nnc[nH]1)c1cccc(NC(=O)c2cc3ccccc3cn2)c1` [Compound 98, (S)-N-(3-(1-((4H-1,2,4-triazol-3-yl)thio)ethyl)phenyl)isoquinoline-3-carboxamide], in assay [1], the fold induction at 0.3 µM lay within 1.01 to 2.5, the fold induction at 1 µM lay within 1.01 to 2.5 and the fold induction at 4 µM fell in the range of 1.01 to 2.5. In addition, in assay [2], the fold induction at 1 µM is 0.051 to 0.1 and the fold induction at 8 µM lay within 0.051 to 0.1. In assay [3], the fold induction at 1 µM was less than 0.6 and the fold induction at 8 µM is less than 0.6.

On to `Cc1cc(C(=O)Nc2cc([C@H](C)Sc3nncn3C)ccn2)nc(C(F)(F)F)c1` [Compound 103, (S)-4-methyl-N-(4-(1-((4-methyl-4H-1,2,4-triazol-3-yl)thio)ethyl)pyridin-2-yl)-6-(trifluoromethyl)picolinamide], for which, in assay [1], the fold induction at 0.3 µM was 1.01 to 2.5, the fold induction at 1 µM fell in the range of 1.01 to 2.5 and the fold induction at 4 µM was 1.01 to 2.5. In assay [2], the fold induction at 1 µM is less than 0.05 and the fold induction at 8 µM lay within 0.051 to 0.1. In assay [3], the fold induction at 1 µM is less than 0.6 and the fold induction at 8 µM lay within 0.801 to 1.

With `C[C@H](Sc1nncn1C)c1ccnc(NC(=O)c2cc(C3CC3)cc(C(F)(F)F)n2)c1` [Compound 104, (S)-4-cyclopropyl-N-(4-(1-((4-methyl-4H-1,2,4-triazol-3-yl)thio)ethyl)pyridin-2-yl)-6-(trifluoromethyl)picolinamide], in assay [1], the fold induction at 0.3 µM lay in the range of 1.01 to 2.5, the fold induction at 1 µM was 1.01 to 2.5 and the fold induction at 4 µM is 1.01 to 2.5. For the same compound, in assay [2], the fold induction at 1 µM is less than 0.05 and the fold induction at 8 µM was less than 0.05. For the same compound, in assay [3], the fold induction at 1 µM was in the range of 0.601 to 0.8 and the fold induction at 8 µM lay within 0.801 to 1.

Source of the values: patent US20220324835A1 (Nurix Therapeutics, Inc., priority 2018, published 2022).
